What was measured:
Assay type in all cases: in vivo
[1] = system: broad leaf weeds (Lindernia pyxidaria and Monochoria vaginalis); assay: Test Example 1: herbicidal effect test by treatment of rice paddy soil (immediately after seeding)
Protocol: (§1) Herbicidal Effect Test by Treatment of Rice Paddy Soil
(§2) Wagner pots with an area of 1/10000 ares were filled with a paddy soil, and after adding water, a compound fertilizer (N:P:K=17:17:17) was added, followed by soil puddling. Then, Echinochloa crus-galli, broad leaf weeds (Lindernia pyxidaria and Monochoria vaginalis) and Scirpus juncoides, 30 seeds each, were sown in a depth of 0 to 1 cm. Water was poured immediately after seeding, and the water depth was kept at about 3 cm. The subsequent management was conducted in a glass greenhouse. Immediately after that, emulsions prepared using the compounds in Table 3 below according to Formulation Example 5 were diluted with water, and a certain amount of the water-diluted agent solutions were dropped. The converted amount of the applied active ingredient corresponded to 120 g per 10 ares.
(§3) This test was conducted in a double system per one agent solution concentration area, and the herbicidal rates (%) were determined by the following equation (Math. 1) on 14 days after the treatment with the agents. Herbicidal Rate (%)={1-(Average Dry Weight (g) of Plant of Treated Area)/(Average Dry Weight (g) of Plant of Untreated Area)}×100 [Math. 1]
(§4) The compound numbers in Table 3 are the same as those in Table 1 and Table 2 above.

Scirpus juncoides [2] = assay: as above
Protocol: as §1, §2, §3, §4

Echinochloa crus-galli [3] = assay: as above
Protocol: as §1, §2, §3, §4

[4] = system: broad leaf weeds (Lindernia pyxidaria and Monochoria vaginalis); assay: Test Example 2: herbicidal effect test by treatment during growing period in paddy rice cultivation (seven days after seeding); settings: for Herbicidal rate (%) Lindernia pyxidaria / Herbicidal rate (%) Monochoria vaginalis: 120 g/10a active ingredient, assessed 14 days after treatment, dry weight vs untreated area
Protocol: as §3
(§5) Herbicidal Effect Test by Treatment During Growing Period in Paddy Rice Cultivation
as §2, with “was mixed,” for “was added,”, “greenhouse. Emulsions” for “greenhouse. Immediately after that, emulsions”, “Table 4” for “Table 3”, “with water seven days after seeding,” for “with water,”, “ares. The test was conducted in a double system per one agent solution concentration area, and the herbicidal rates (%) were determined by the equation (Math. 1) on 14 days after the treatment with the agents. […] The compound numbers in Table 4 are the same as those in Table 1 and Table 2 above.” for “ares.”

Scirpus juncoides [5] = assay: as above; settings: for Herbicidal rate (%) Scirpus juncoides: 120 g/10a active ingredient, assessed 14 days after treatment, dry weight vs untreated area
Protocol: as §3, §5
as §2, with “was mixed,” for “was added,”, “greenhouse. Emulsions” for “greenhouse. Immediately after that, emulsions”, “Table 4” for “Table 3”, “with water seven days after seeding,” for “with water,”, “ares. The test was conducted in a double system per one agent solution concentration area, and the herbicidal rates (%) were determined by the equation (Math. 1) on 14 days after the treatment with the agents. […] The compound numbers in Table 4 are the same as those in Table 1 and Table 2 above.” for “ares.”

Echinochloa crus-galli [6] = assay: as above; settings: for Herbicidal rate (%) Echinochloa crus-galli: 120 g/10a active ingredient, assessed 14 days after treatment, dry weight vs untreated area
Protocol: as §3, §5
as §2, with “was mixed,” for “was added,”, “greenhouse. Emulsions” for “greenhouse. Immediately after that, emulsions”, “Table 4” for “Table 3”, “with water seven days after seeding,” for “with water,”, “ares. The test was conducted in a double system per one agent solution concentration area, and the herbicidal rates (%) were determined by the equation (Math. 1) on 14 days after the treatment with the agents. […] The compound numbers in Table 4 are the same as those in Table 1 and Table 2 above.” for “ares.”

[7] = Lindernia pyxidaria, 120 g/10a active ingredient, dry weight vs untreated area, 14 days after treatment
[8] = Monochoria vaginalis, 120 g/10a active ingredient, dry weight vs untreated area, 14 days after treatment
[9] = 120 g/10a active ingredient, dry weight vs untreated area, 14 days after treatment
[10] = 120 g/10a active ingredient, 14 days after treatment, dry weight vs untreated area
[11] = 120 g/10a, rated 14 days after treatment, paddy soil pots

| Compound | Herbicidal rate (%) Lindernia pyxidaria [1, 7] | Herbicidal rate (%) Monochoria vaginalis [1, 8] | Herbicidal rate (%) Scirpus juncoides (Scirpus juncoides [2]; [9]) | Herbicidal rate (%) Echinochloa crus-galli (Echinochloa crus-galli [3]; [9]) | Herbicidal rate (%) Lindernia pyxidaria ([4]; Lindernia pyxidaria) | Herbicidal rate (%) Monochoria vaginalis ([4]; Monochoria vaginalis) | Herbicidal rate (%) Scirpus juncoides (Scirpus juncoides [5]) | Herbicidal rate (%) Echinochloa crus-galli (Echinochloa crus-galli [6]) | Herbicidal rate (%) Lindernia pyxidaria ([1]; Lindernia pyxidaria, 120 g/10a active ingredient, 14 days after treatment, dry weight vs untreated area) | Herbicidal rate (%) Monochoria vaginalis ([1]; Monochoria vaginalis, 120 g/10a active ingredient, 14 days after treatment, dry weight vs untreated area) | Herbicidal rate (%) Scirpus juncoides (Scirpus juncoides [2]; [10]) | Herbicidal rate (%) Echinochloa crus-galli (Echinochloa crus-galli [3]; [10]) | herbicidal rate, Lindernia pyxidaria ([4]; Lindernia pyxidaria, 120 g/10a, rated 14 days after treatment, paddy soil pots) | herbicidal rate, Monochoria vaginalis ([4]; Monochoria vaginalis, 120 g/10a, rated 14 days after treatment, paddy soil pots) | herbicidal rate, Scirpus juncoides (Scirpus juncoides [5]; [11]) | herbicidal rate, Echinochloa crus-galli (Echinochloa crus-galli [6]; [11]) |
| --- | --- | --- | --- | --- | --- | --- | --- | --- | --- | --- | --- | --- | --- | --- | --- | --- |
| Cc1c(Cc2ccccc2NS(=O)(=O)C(F)(F)F)c(=O)on1Cc1ccc(F)c(Cl)c1 [Compound 1-202] | 100% | 90% | 80% | 100% | 60% | 60% | 40% | 40% | – | – | – | – | – | – | – | – |
| Cc1c(Cc2ccccc2N(S(=O)(=O)C(F)(F)F)S(=O)(=O)C(F)(F)F)c(=O)on1C(C)c1ccsc1 (stereo not drawn) [Compound 1-1057] | – | – | – | – | – | – | – | – | 80% | 80% | 90% | 90% | 60% | 80% | 80% | 80% |
| CCC(C)Cn1oc(=O)c(Cc2ccccc2N(C(=O)OCc2ccccc2)S(=O)(=O)C(F)(F)F)c1C (single isomer, unassigned) [1-788 (TLC top)] | 60% | 50% | 80% | 80% | 40% | 40% | 50% | 40% | – | – | – | – | – | – | – | – |
| Cc1c(Cc2ccccc2NS(=O)(=O)C(F)(F)F)c(=O)on1C(C)c1ccccc1Cl (stereo not drawn) [Compound 1-205] | 100% | 100% | 90% | 100% | 90% | 90% | 80% | 50% | – | – | – | – | – | – | – | – |
| Cc1c(Cc2ccccc2N(S(=O)(=O)C(F)(F)F)S(=O)(=O)C(F)(F)F)c(=O)on1Cc1ccccc1F [Compound 1-1012] | 100% | 100% | 100% | 90% | 80% | 80% | 90% | 60% | – | – | – | – | – | – | – | – |
| Cc1c(Cc2ccccc2NS(=O)(=O)C(F)(F)F)c(=O)on1Cc1ccc(Cl)cc1 [Compound 1-186] | 100% | 100% | 90% | 90% | 80% | 80% | 80% | 50% | – | – | – | – | – | – | – | – |
| Cc1c(Cc2ccccc2N(S(=O)(=O)C(F)(F)F)S(=O)(=O)C(F)(F)F)c(=O)on1Cc1ccc(F)c(F)c1 [Compound 1-1027] | 100% | 100% | 80% | 90% | 40% | 40% | 40% | 40% | – | – | – | – | – | – | – | – |
| Cc1c(Cc2ccccc2NS(=O)(=O)C(F)(F)F)c(=O)on1Cc1ccc(C(C)(C)C)cc1 [Compound 1-192] | 100% | 100% | 40% | 90% | 80% | 80% | 60% | 40% | – | – | – | – | – | – | – | – |
| CCCOC(=O)N(c1ccccc1Cc1c(C)n(C(C)COC)oc1=O)S(=O)(=O)C(F)(F)F (stereo not drawn) [Compound 1-634] | 90% | 90% | 90% | 90% | 90% | 90% | 90% | 90% | – | – | – | – | – | – | – | – |
| CC(C)c1c(Cc2ccccc2NS(=O)(=O)C(F)(F)F)c(=O)on1C(C)C [Compound 1-68] | 90% | 80% | 90% | 80% | 70% | 80% | 80% | 40% | – | – | – | – | – | – | – | – |
| Cc1c(Cc2ccccc2N(S(=O)(=O)C(F)(F)F)S(=O)(=O)C(F)(F)F)c(=O)on1CCc1ccc(F)cc1 [Compound 1-1044] | 60% | 40% | 40% | 90% | 40% | 40% | 70% | 70% | – | – | – | – | – | – | – | – |
| Cn1oc(=O)c(Cc2ccccc2NS(=O)(=O)C(F)(F)F)c1C(F)(F)F [Compound 1-78] | 50% | 50% | 70% | 40% | 40% | 60% | 80% | 40% | – | – | – | – | – | – | – | – |
| Cc1c(Cc2ccccc2N(S(=O)(=O)C(F)(F)F)S(=O)(=O)C(F)(F)F)c(=O)on1Cc1ccc(F)c(Cl)c1 [Compound 1-1029] | 60% | 60% | 60% | 60% | – | – | – | – | – | – | – | – | – | – | – | – |
| Cc1c(Cc2ccccc2N(S(=O)(=O)C(F)(F)F)S(=O)(=O)C(F)(F)F)c(=O)on1Cc1ccc(C(F)(F)F)cc1 [Compound 1-1021] | 40% | 40% | 60% | 40% | – | – | – | – | – | – | – | – | – | – | – | – |
| Cc1c(Cc2ccccc2N(S(=O)(=O)C(F)(F)F)S(=O)(=O)C(F)(F)F)c(=O)on1Cc1cccc(F)c1 [Compound 1-1013] | 90% | 90% | 90% | 40% | – | – | – | – | – | – | – | – | – | – | – | – |
